In experiment [1] the target is menin/MLL (terbium chelate-labeled menin, FITC-MBM1 peptide) (Homo sapiens (Human), UniProt O00255). The experiment in a line: Menin/MLL homogenous time-resolved fluorescence (HTRF) assay.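 Also: IC50 from percent inhibition of HTRF signal, normalized between wells without competitor and wells with a saturating competitor that displaces FITC-MBM1 from His-tagged menin.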 In kind it is binding. The following applies: HTRF-30 min incubation IC50, 30 min incubation. (In TR-FRET formats the signal depends on donor and acceptor labels being close together.)
Chain of menin/MLL (terbium chelate-labeled menin, FITC-MBM1 peptide) (O00255 other isoform, or with tags, fused parts or gaps): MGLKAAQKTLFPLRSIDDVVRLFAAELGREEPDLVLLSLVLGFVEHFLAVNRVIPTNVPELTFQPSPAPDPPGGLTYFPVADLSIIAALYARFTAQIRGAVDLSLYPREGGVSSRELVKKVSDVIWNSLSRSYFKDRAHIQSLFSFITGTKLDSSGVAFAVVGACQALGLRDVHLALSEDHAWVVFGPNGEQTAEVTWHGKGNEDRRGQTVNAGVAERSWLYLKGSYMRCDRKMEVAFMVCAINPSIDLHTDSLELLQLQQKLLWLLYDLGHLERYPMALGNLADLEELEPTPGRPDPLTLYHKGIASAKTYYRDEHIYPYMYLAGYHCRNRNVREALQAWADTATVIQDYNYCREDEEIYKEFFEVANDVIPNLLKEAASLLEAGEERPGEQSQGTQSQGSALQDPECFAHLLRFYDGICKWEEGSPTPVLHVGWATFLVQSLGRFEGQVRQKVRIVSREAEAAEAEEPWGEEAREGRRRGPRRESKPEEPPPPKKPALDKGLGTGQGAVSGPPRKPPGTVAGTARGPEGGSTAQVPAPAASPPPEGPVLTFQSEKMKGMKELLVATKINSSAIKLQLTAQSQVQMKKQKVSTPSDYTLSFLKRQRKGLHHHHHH

Another experiment relates to MOLM14 cells. Briefly: Proliferation assay (spheroid growth, 8 days), MOLM14.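 Also: spheroid size read as confluence by live-cell imaging, compounds added at a range of concentrations with 0.3% DMSO, DMSO-treated wells = 0%, highest reference dose = low control.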 In kind it is cell-based, human. The following applies: Homo sapiens, MOLM-14, […], MOLM14, 8 days; read-out: spheroid assay_OneTime MOLM14 IC50.
Another experiment deals with OCI-AML3 cells. Briefly: Proliferation assay (spheroid growth, 8 days), OCI-AML3. In kind it is cell-based, human. Particulars: Homo sapiens, OCI-AML-3, […], OCI-AML3, 8 days. An outline of the steps: (§1)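 200 MOLM14 (MLL-AF9), 200 OCI-AML3 (NPM1c) or 300 KO-52 (MLL wildtype) cells were grown as spheroids in ultra-low attachment wells with compound, 0.3% DMSO, for 8 days at 37 °C. Confluence was imaged on day 8, normalized to DMSO and top-dose reference compound. IC50 came from a variable-slope fit constrained 0–100%.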

A further experiment deals with KO-52 cells. The experiment in a line: Proliferation assay (spheroid growth, 8 days), KO-52 control cell line. It is filed as cell-based, human. Particulars: Homo sapiens, […], read-out: spheroid assay_OneTime KO-52 IC50. An outline of the steps:
as §1

In a further experiment the test system is MEIS1 mRNA. The experiment in a line: MEIS1 mRNA expression assay (Quantigene Singleplex) in MOLM14 cells.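 Also: MEIS1 transcript levels read by probe hybridization and normalized to RPL28 mRNA, with IC50 fitted to fold changes across a rising compound concentration series.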 Particulars: Homo sapiens, MOLM-14, 48 h, 48 hours incubation. It is filed as cell-based, human.

Counter-ions that a name gives are not always drawn. Where only a bound is given, the exact number is not on record here.

`CCCN(C)CCC[C@@H](C(C)C)N1CC2(CCN(c3ncnnc3Oc3ccc(F)cc3C(=O)N(CC)C(C)C)C2)C1` (single isomer, unassigned) [Compound 128, (*S)—N-ethyl-5-fluoro-N-isopropyl-2-((5-(2-(2-methyl-6-(methyl(propyl)amino)hexan-3-yl)-2,6-diazaspiro[3.4]octan-6-yl)-1,2,4-triazin-6-yl)oxy)benzamide fumarate]: the IC50 in experiment [1] was 1.64 nM; in the experiment on MOLM14 cells it was 630 nM; in the experiment on OCI-AML3 cells, 1990 nM; with KO-52 cells it was 11400 nM; with MEIS1 mRNA, about 680 nM.
As for `CCN(C(=O)c1cc(F)ccc1Oc1nncnc1N1CCC2(C1)CN([C@H](CCCN(C)[C@@H](CO)COC)C(C)C)C2)C(C)C` [Compound 167, N-ethyl-5-fluoro-2-((5-(2-((R)-6-(((S)-1-hydroxy-3-methoxypropan-2-yl)(methyl)amino)-2-methylhexan-3-yl)-2,6-diazaspiro[3.4]octan-6-yl)-1,2,4-triazin-6-yl)oxy)-N-isopropylbenzamide fumarate], the IC50 in experiment [1] was 0.16 nM; in the experiment on MOLM14 cells it was 17 nM; with OCI-AML3 cells, 65 nM; in the experiment with KO-52 cells, over 15000 nM; in the experiment with MEIS1 mRNA, 18 nM.
Taken in the same sequence, the figures for `CCN(C(=O)c1cc(F)ccc1Oc1nncnc1N1CCC2(C1)CN([C@H](C[C@H](O)CN(C)CCOC)C(C)C)C2)C(C)C` (single isomer, unassigned) [Compound 352, N-ethyl-5-fluoro-2-((5-(2-((3*R,5S)-5-hydroxy-6-((2-methoxyethyl)(methyl)amino)-2-methylhexan-3-yl)-2,6-diazaspiro[3.4]octan-6-yl)-1,2,4-triazin-6-yl)oxy)-N-isopropylbenzamide fumarate] were 0.077 nM, 18 nM, 150 nM, over 15000 nM and 130 nM.
As for `CCN(C(=O)c1cc(F)ccc1Oc1nncnc1N1CCC2(C1)CN([C@H](CCN(C)CCC(N)=O)C(C)C)C2)C(C)C` (single isomer, unassigned) [Compound 280, (*R)-2-((5-(2-(1-((3-amino-3-oxopropyl)(methyl)amino)-4-methylpentan-3-yl)-2,6-diazaspiro[3.4]octan-6-yl)-1,2,4-triazin-6-yl)oxy)-N-ethyl-5-fluoro-N-isopropylbenzamide fumarate], the IC50 is 0.2 nM in experiment [1]; 690 nM in the experiment on MOLM14 cells; 920 nM with OCI-AML3 cells; over 15000 nM in the experiment on KO-52 cells; 1070 nM in the experiment with MEIS1 mRNA.
For the molecule `CCN(C(=O)c1cc(F)ccc1Oc1nncnc1N1CCC2(C1)CN([C@H](CCCNCC(COC)OC)C(C)C)C2)C(C)C` (stereo partly drawn) [Compound 172, 2-((5-(2-((3R)-6-((2,3-dimethoxypropyl)amino)-2-methylhexan-3-yl)-2,6-diazaspiro[3.4]octan-6-yl)-1,2,4-triazin-6-yl)oxy)-N-ethyl-5-fluoro-N-isopropylbenzamide fumarate], the IC50 in experiment [1] was 0.13 nM; with MOLM14 cells, 23 nM; in the experiment on OCI-AML3 cells, 38 nM; in the experiment on KO-52 cells it was 13400 nM; in the experiment on MEIS1 mRNA it was 13 nM.
Regarding `CCN(C(=O)c1cc(F)ccc1Oc1nncnc1N1CCC2(C1)CN([C@H](CCCN[C@H](CO)COC)C(C)C)C2)C(C)C` [Compound 162, N-ethyl-5-fluoro-2-((5-(2-((R)-6-(((R)-1-hydroxy-3-methoxypropan-2-yl)amino)-2-methylhexan-3-yl)-2,6-diazaspiro[3.4]octan-6-yl)-1,2,4-triazin-6-yl)oxy)-N-isopropylbenzamide], the half-inhibitory concentration (IC50) in experiment [1] was 0.096 nM; in the experiment on MOLM14 cells, 13 nM; in the experiment with OCI-AML3 cells, 26 nM; in the experiment with KO-52 cells, over 15000 nM; in the experiment with MEIS1 mRNA, about 19 nM.
For `CCN(C(=O)c1cc(F)ccc1Oc1nncnc1N1CCC2(C1)CN([C@H](CCCN(C)C[C@@H](C)OC)C(C)C)C2)C(C)C` (single isomer, unassigned) [Compound 250, N-ethyl-5-fluoro-N-isopropyl-2-((5-(2-((R)-6-(((*R)-2-methoxypropyl)(methyl)amino)-2-methylhexan-3-yl)-2,6-diazaspiro[3.4]octan-6-yl)-1,2,4-triazin-6-yl)oxy)benzamide oxalate], in that order: 0.18 nM, 220 nM, 410 nM, 7050 nM and 91 nM.
For `CCN(C(=O)c1cc(F)ccc1Oc1nncnc1N1CCC2(C1)CN([C@H](CCCN(C)[C@@H](C)COC)C(C)C)C2)C(C)C` [Compound 157, N-ethyl-5-fluoro-N-isopropyl-2-((5-(2-((R)-6-((S)-1-methoxypropan-2-yl)(methyl)amino)-2-methylhexan-3-yl)-2,6-diazaspiro[3.4]octan-6-yl)-1,2,4-triazin-6-yl)oxy)benzamide fumarate], the IC50 worked out at 0.12 nM in experiment [1]; 21 nM with MOLM14 cells; 83 nM in the experiment on OCI-AML3 cells; 13800 nM in the experiment with KO-52 cells; 22 nM in the experiment on MEIS1 mRNA.
In the case of `CCN(C(=O)c1cc(F)ccc1Oc1nncnc1N1CCC2(C1)CN(C(CCCN)C(C)C)C2)C(C)C` (centres unmarked) [Compound 3, 2-((5-(2-(6-amino-2-methylhexan-3-yl)-2,6-diazaspiro[3.4]octan-6-yl)-1,2,4-triazin-6-yl)oxy)-N-ethyl-5-fluoro-N-isopropylbenzamide formate], the IC50 is 0.1 nM in experiment [1]; 42 nM in the experiment with MOLM14 cells; 310 nM in the experiment with OCI-AML3 cells; over 15000 nM with KO-52 cells; 95 nM with MEIS1 mRNA.
Taken in the same sequence, the figures for `CCN(C(=O)c1cc(F)ccc1Oc1nncnc1N1CCC2(C1)CN([C@H](CCNCC(N)=O)C(C)C)C2)C(C)C` (single isomer, unassigned) [Compound 230, (*R)-2-((5-(2-(1-((2-amino-2-oxoethyl)amino)-4-methylpentan-3-yl)-2,6-diazaspiro[3.4]octan-6-yl)-1,2,4-triazin-6-yl)oxy)-N-ethyl-5-fluoro-N-isopropylbenzamide] were about 0.88 nM, over 940 nM, 1160 nM, over 15000 nM and about 940 nM.
With `CCN(C(=O)c1cc(F)ccc1Oc1nncnc1N1CCC2(C1)CN([C@H](C[C@H](O)CN(C)C(C)C)C(C)C)C2)C(C)C` (single isomer, unassigned) [Compound 325, N-ethyl-5-fluoro-2-((5-(2-((3*R,5*S)-5-hydroxy-6-(isopropyl(methyl)amino)-2-methylhexan-3-yl)-2,6-diazaspiro[3.4]octan-6-yl)-1,2,4-triazin-6-yl)oxy)-N-isopropylbenzamide fumarate], the IC50 in experiment [1] was about 0.16 nM; with MOLM14 cells, 16 nM; in the experiment on OCI-AML3 cells it was 190 nM; with KO-52 cells, over 15000 nM; in the experiment with MEIS1 mRNA, 15 nM.
For the molecule `CCN(C(=O)c1cc(F)ccc1Oc1nncnc1N1CCC2(C1)CN([C@H](CCCNCC(CO)OC)C(C)C)C2)C(C)C` (stereo partly drawn) [Compound 168, N-ethyl-5-fluoro-2-((5-(2-((3R)-6-((3-hydroxy-2-methoxypropyl)amino)-2-methylhexan-3-yl)-2,6-diazaspiro[3.4]octan-6-yl)-1,2,4-triazin-6-yl)oxy)-N-isopropylbenzamide], the 50% inhibitory concentration (IC50) in experiment [1] was 0.1 nM; in the experiment with MOLM14 cells, 49 nM; in the experiment with OCI-AML3 cells it was 370 nM; in the experiment on KO-52 cells it was over 15000 nM; in the experiment with MEIS1 mRNA it was 74 nM.
`CCN(C(=O)c1cc(F)ccc1Oc1nncnc1N1CCC2(C1)CN([C@H](CCCN(C)CCO)C(C)C)C2)C(C)C` [Compound 259, (R)-N-ethyl-5-fluoro-2-((5-(2-(6-((2-hydroxyethyl)(methyl)amino)-2-methylhexan-3-yl)-2,6-diazaspiro[3.4]octan-6-yl)-1,2,4-triazin-6-yl)oxy)-N-isopropylbenzamide fumarate]: the IC50 in experiment [1] is 0.16 nM; with MOLM14 cells, 46 nM; in the experiment on OCI-AML3 cells, 250 nM; with KO-52 cells, over 15000 nM; with MEIS1 mRNA it was 65 nM.
`CCN(C(=O)c1cc(F)ccc1Oc1nncnc1N1CCC2(C1)CN([C@H](CCCCN(C)C)C(C)C)C2)C(C)C` (single isomer, unassigned) [Compound 211]: the IC50 in experiment [1] is 0.35 nM; with MOLM14 cells, 150 nM; in the experiment with OCI-AML3 cells, 97 nM; in the experiment with KO-52 cells it was over 15000 nM; in the experiment on MEIS1 mRNA, 110 nM.
Taken in the same sequence, the figures for `CCN(C(=O)c1cc(F)ccc1Oc1nncnc1N1CCC2(C1)CN([C@H](CCCNCC(F)F)C(C)C)C2)C(C)C` [Compound 15, (R)-2-((5-(2-(6-((2,2-difluoroethyl)amino)-2-methylhexan-3-yl)-2,6-diazaspiro[3.4]octan-6-yl)-1,2,4-triazin-6-yl)oxy)-N-ethyl-5-fluoro-N-isopropylbenzamide] were 0.25 nM, 100 nM, 460 nM, 3700 nM and 71 nM.
`CCN(C(=O)c1cc(F)ccc1Oc1nncnc1N1CCC2(C1)CN([C@H](CCCN(C)[C@H](C)CC(=O)N(C)C)C(C)C)C2)C(C)C` (single isomer, unassigned) [Compound 184, 2-((5-(2-((R)-6-(((*R)-4-(dimethylamino)-4-oxobutan-2-yl)(methyl)amino)-2-methylhexan-3-yl)-2,6-diazaspiro[3.4]octan-6-yl)-1,2,4-triazin-6-yl)oxy)-N-ethyl-5-fluoro-N-isopropylbenzamide fumarate]: the IC50 was about 0.36 nM in experiment [1]; 230 nM in the experiment with MOLM14 cells; 190 nM in the experiment with OCI-AML3 cells; 3000 nM in the experiment with KO-52 cells; 110 nM in the experiment with MEIS1 mRNA.

As a reminder, the IC50 is the concentration that inhibits the measured activity by half.

Source of the values: US12473295B2, “Substituted straight chain spiro derivatives” (Janssen Pharmaceutica NV, priority 2019, dated 2025).
